Source: patent US20070020193A1, “Dronabinol compositions and methods for using same” (priority 2005, published 2007)

Tests used:
[1] = Example 2 multiple rising dose inhaled delta-9-THC study: plasma pharmacokinetics
Description: A randomized, double-blind, placebo-controlled, multiple rising dose safety, tolerability, pharmacokinetic and pharmacodynamic study to assess two dose levels of inhaled delta-9-THC was conducted. Dose levels were studied in ascending order. Two consecutive groups (n=9/group) of healthy subjects were studied (Groups I and II). […] There was a lapse of at least 10 days between the groups for interim safety and pharmacokinetic analysis. Two dose levels were studied in ascending order. […] Subjects in each treatment Group (I or II) received single and multiple doses of inhaled delta-9-THC according to the following schedule:
For both dose levels, the first and the last dose of study drug was given under fasted conditions. Subjects were confined to the study site from the evening of Day −2 (Day 1 is the day of administration of the first dose of study drug) until the 120-hour blood sample following the final dose of study drug, resulting in an 18-day confinement period for subjects in Group I and a 25-day confinement period for Group II. Between the completion of Group I and the start of Group II, an interim safety and pharmacokinetic analysis was performed. Based on the results of the interim analyses, the dose level for investigation in Group II was determined.
Two MDI dosage strengths were used corresponding to the same formulations used in Example 1: one delivering 0.3 mg delta-9-THC (or placebo) per actuation and one delivering 1.2 mg delta-9-THC (or placebo) per actuation. The MDI consisted of a pressurized (via propellants) container and a metered-dose valve. The propellants provided the necessary force to expel the drug, and also acted as a solvent and diluent. The canister unit was provided within a mouthpiece (oral adapter), to expel an exact amount of drug, in the proper particle size distribution, upon each actuation. Two basic formulations containing 0.3 and 1.2 mg of delta-9-THC per 50 μL were developed with propellant 1,1,1,2 tetrafluoroethane 134a (HFA 134a), and ethanol as solvent. The formulations were made in accordance with the composition used in Example 1.
(§1) Whole blood samples were collected according to the assessment flowchart in EDTA tubes through venepuncture or indwelling catheter. Samples were immediately placed on ice and subsequently centrifuged within 30 minutes at 1,500 g for 10 minutes. Plasma was transferred into a 5 ml screw cap polypropylene tube, stoppered and stored at below minus 20° C. until transfer to the analytical laboratory for analysis. […] The measurement ranges were 0.05-30 ng/ml for delta-9-THC, 0.04-30 ng/ml for 11-OH-THC, and 0.25-10 ng/ml for THC-COOH.
For Example 2: The statistical analysis encompassed an exploratory analysis of the single and multiple dose pharmacokinetics and dose proportionality of two dose levels of inhaled delta-9-THC in healthy subjects. Descriptive statistics included number of subjects, mean, standard deviation, coefficient of variation (%) and geometric mean for all pharmacokinetic parameters.
The exploratory analysis was performed on the logarithms of the dose-normalized pharmacokinetic parameters AUC(0-inf), AUC(0-t), AUC(0-τ) and Cmax. Dose proportionality was tested both at single dose and at multiple dose (steady state) by comparing the dose groups for all pharmacokinetic parameters by an analysis of variance with dose as fixed effect.
Dose proportionality was tested by the contrast between the dose groups. For this contrast on the logarithmic scale, p-values were given. After anti-logarithmic transformation, the resultant ratios of geometric means and 90% confidence intervals were given.
Accumulation was tested by comparing the steady state values for AUC(0-τ) with the single dose values for AUC(0-τ) by a mixed model analysis of variance with dose and day (with levels single dose and steady state) as fixed effects and subject within dose as random effect.

[2] = Example 1 single rising dose inhaled delta-9-THC study: plasma pharmacokinetics
Description: A randomized, double blind, placebo controlled, three way crossover, single rising dose human clinical study in two sequential groups (Groups I and II) of nine young healthy male subjects (18-45 years of age and body mass index (BMI) of 20-26 kg/m^2) of a metered dose inhalation composition according to one embodiment the present invention was conducted. Each subject received two ascending single doses of inhaled delta-9-THC and one single dose of inhaled placebo according to a three-way crossover balanced incomplete block design. The administered composition is detailed in Table 1. Composition I provides 0.3 mg per actuation, while Composition II provides 1.2 mg per actuation.
Each sequential dose level or period was separated by a washout period of two weeks, during which an interim safety and pharmacokinetic analysis was performed. A third group (Group III) of nine elderly healthy male and female subjects (65-80 years old and BMI 18-30 kg/m^2) was added after completion of the sixth study period to participate in a single treatment period. […] Five dose levels were evaluated: 0.3 mg, 1.2 mg, and 2.4 mg in Group I, 3.6 mg, 7.2 mg, and 9.6 mg in Group II, and 3.6 mg in Group III. Subjects were confined to the study center from the day prior to dosing until the 48 hour blood sample. Subjects returned to the center for 72, 96 and 120 hour pharmacokinetic samples. Various pharmacokinetic and pharmacodynamic measurements and sampling were taken according to the Assessment Flow Charts in FIG. 1 and FIG. 2. Safety was measured by monitoring adverse events, physical examination, clinical laboratory and pulmonary function tests, vital signs, 12 lead ECG, and telemetry.
Safety, pharmacokinetic and pharmacodynamic variables were estimated. Plasma concentrations of delta-9-THC (THC), 11-hydroxy-tetrahydrocanabinol (11-OH-THC) and delta-9-tetrahydrocannbinol-carboxylic acid (THC-COOH) were determined for pharmacokinetic analysis.
as §1
Number of subjects, mean, standard deviation, coefficient variable (%) and geometric mean were calculated for all pharmacokinetic parameters.
For Example 1: A mixed ANOVA model with group and dose fixed effect and subject within group by dose as random effect was performed on the logarithms of the dose normalized pharmacokinetic parameters AUC, AUC0-t and Cmax. The overall treatment effect was tested by conventional F-test with Satterthwaites correction. Dose proportionality was tested using Helmert Contrasts and Reverse Helmert Contrasts. The within and between subject coefficient of variances were calculated from the estimated covariance parameters. Per dose level geometric means with 90% confidence interval were calculated for the dose-normalized values from the least squared means analysis outcomes. The difference between young and elderly subjects was explored using a one-way ANOVA.

CCCCCc1cc(O)c2c(c1)OC(C)(C)C1CCC(CO)=CC21 (stereo not shown) [11-OH-THC, 11-hydroxy-tetrahydrocanabinol]
achievement of steady state ([1]; 1.2 mg delta-9-THC three times daily): apparently reached after six days of dosing
Cmax, Geometric Mean (Range) ([1]; 1.2 mg m.d. (three times daily), Day 12, Group I): 0.54 (0.26-1.26) ng/mL
AUC(0-8), Arithmetic Mean (SD) ([1]; 1.2 mg m.d., Day 12, Group I): 2.07 (0.99) ng · h/mL
AUC(0-8), Geometric Mean (Range) ([1]; 1.2 mg m.d., Day 12, Group I): 1.89 (1.13-3.48) ng · h/mL
Cmax, Arithmetic Mean (SD) ([1]; 1.2 mg m.d., Day 12, Group I): 0.61 (0.36) ng/mL
tmax, Arithmetic Mean (SD) ([1]; 1.2 mg m.d., Day 12, Group I): 0.48 (0.36) h
tmax, median (range) ([1]; 1.2 mg m.d., Day 12, Group I): 0.42 (0.17-1.00) h
t½, Arithmetic Mean (SD) ([1]; 1.2 mg m.d., Day 12, Group I): 14.9 (6.08) h
t½, Geometric Mean (Range) ([1]; 1.2 mg m.d., Day 12, Group I): 13.9 (7.41-25.2) h
AUC(0-8), Arithmetic Mean (SD) ([1]; 1.2 mg s.d., Day 1): 1.50 (0.88) ng · h/mL
AUC(0-8), Geometric Mean (Range) ([1]; 1.2 mg s.d., Day 1): 1.26 (0.41-2.66) ng · h/mL
AUC(0-inf), Arithmetic Mean (SD) ([1]; 1.2 mg s.d., Day 1): 1.93 (1.22) ng · h/mL
AUC(0-inf), Geometric Mean (Range) ([1]; 1.2 mg s.d., Day 1): 1.56 (0.49-3.39) ng · h/mL
tmax, Arithmetic Mean (SD) ([1]; 1.2 mg s.d., Day 1): 0.48 (0.75) h
tmax, median (range) ([1]; 1.2 mg s.d., Day 1): 0.17 (0.17-2.00) h
t½, Arithmetic Mean (SD) ([1]; 1.2 mg s.d., Day 1): 4.19 (1.67) h
t½, Geometric Mean (Range) ([1]; 1.2 mg s.d., Day 1): 3.91 (2.55-6.01) h
Cmax, Arithmetic Mean (SD) ([1]; 1.2 mg s.d., Day 1, plasma): 0.86 (0.57) ng/mL
Cmax, Geometric Mean (Range) ([1]; 1.2 mg s.d., Day 1, plasma): 0.63 (0.10-1.55) ng/mL
Cmax, Geometric Mean (Range) ([1]; 3.6 mg m.d. (three times daily), Day 19, Group II): 2.87 (1.27-6.97) ng/mL
AUC(0-8), Arithmetic Mean (SD) ([1]; 3.6 mg m.d., Day 19, Group II): 10.1 (6.13) ng · h/mL
AUC(0-8), Geometric Mean (Range) ([1]; 3.6 mg m.d., Day 19, Group II): 8.69 (4.06-19.8) ng · h/mL
Cmax, Arithmetic Mean (SD) ([1]; 3.6 mg m.d., Day 19, Group II): 3.40 (2.17) ng/mL
tmax, Arithmetic Mean (SD) ([1]; 3.6 mg m.d., Day 19, Group II): 0.27 (0.20) h
tmax, median (range) ([1]; 3.6 mg m.d., Day 19, Group II): 0.17 (0.17-0.67) h
t½, Arithmetic Mean (SD) ([1]; 3.6 mg m.d., Day 19, Group II): 57.3 (37.9) h
t½, Geometric Mean (Range) ([1]; 3.6 mg m.d., Day 19, Group II): 39.5 (5.65-94.2) h
AUC(0-8), Arithmetic Mean (SD) ([1]; 3.6 mg s.d., Day 1): 5.15 (3.04) ng · h/mL
AUC(0-8), Geometric Mean (Range) ([1]; 3.6 mg s.d., Day 1): 4.44 (2.22-9.46) ng · h/mL
AUC(0-inf), Arithmetic Mean (SD) ([1]; 3.6 mg s.d., Day 1): 6.82 (3.98) ng · h/mL
AUC(0-inf), Geometric Mean (Range) ([1]; 3.6 mg s.d., Day 1): 5.86 (3.03-11.6) ng · h/mL
tmax, Arithmetic Mean (SD) ([1]; 3.6 mg s.d., Day 1): 0.18 (0.01) h
tmax, median (range) ([1]; 3.6 mg s.d., Day 1): 0.17 (0.17-0.20) h
t½, Arithmetic Mean (SD) ([1]; 3.6 mg s.d., Day 1): 5.98 (2.91) h
t½, Geometric Mean (Range) ([1]; 3.6 mg s.d., Day 1): 5.44 (2.96-11.0) h
Cmax, Arithmetic Mean (SD) ([1]; 3.6 mg s.d., Day 1, plasma): 2.21 (1.37) ng/mL
Cmax, Geometric Mean (Range) ([1]; 3.6 mg s.d., Day 1, plasma): 1.91 (1.12-4.38) ng/mL
achievement of steady state ([1]; 3.6-mg dose level three times daily): achieved after seven or eight days of dosing
accumulation during multiple dosing ([1]; 8-hours dosing interval): accumulation occurred during multiple dosing
Ratio AUC(0-8) m.d./AUC(0-8) s.d. (Accumulation factor), Mean ([1]; Group I, 1.2 mg): 1.59
Ratio AUC(0-8) m.d./AUC(0-inf) s.d. (Linearity), Mean ([1]; Group I, 1.2 mg): 1.30
Ratio AUC(0-8) m.d./AUC(0-8) s.d. (Accumulation factor), Mean ([1]; Group II, 3.6 mg): 2.10
Ratio AUC(0-8) m.d./AUC(0-inf) s.d. (Linearity), Mean ([1]; Group II, 3.6 mg): 1.55
dose proportionality: geometric mean ratio (3.6 mg:1.2 mg) of dose-normalized AUC(0-8) (90% confidence interval) ([1]; Multiple dose): 1.53 (0.87-2.69)
dose proportionality: geometric mean ratio (3.6 mg:1.2 mg) of dose-normalized Cmax (90% confidence interval) ([1]; Multiple dose): 1.79 (0.95-3.36)
dose proportionality: geometric mean ratio (3.6 mg:1.2 mg) of dose-normalized AUC(0-8) (90% confidence interval) ([1]; Single dose): 1.18 (0.60-2.33)
dose proportionality: geometric mean ratio (3.6 mg:1.2 mg) of dose-normalized AUC(0-inf) (90% confidence interval) ([1]; Single dose): 1.25 (0.61-2.57)
dose proportionality: geometric mean ratio (3.6 mg:1.2 mg) of dose-normalized AUC(0-t) (90% confidence interval) ([1]; Single dose): 1.43 (0.64-3.20)
dose proportionality: geometric mean ratio (3.6 mg:1.2 mg) of dose-normalized Cmax (90% confidence interval) ([1]; Single dose): 1.01 (0.42-2.42)
Cmax, fold lower compared to the parent compound ([1]; after multiple dosing): ~13 fold
exposure compared to the parent drug (AUC(0-8)) ([1]; after multiple dosing): approximately two-fold lower
Cmax, fold lower compared to the parent compound ([1]; after single dosing): approximately 25 fold
dose proportionality of pharmacokinetic parameters ([1]; after single or multiple dose administration): not found to deviate significantly
plasma concentration-time curve, elimination profile ([1]; both dose levels): at least a bi-phasic elimination profile
time of peak plasma concentration ([1]; both dose levels, post-dose): between 10 minutes and 2 hours post-dose
exposure compared to the parent drug (AUC(0-inf)) ([1]; following single dose administration): approximately four-fold lower
Cmax and AUC values versus dose ([1]; single and multiple dose administration, 1.2 and 3.6 mg): Dose-related increases
Terminal elimination half-lives (summary estimate) ([1]; summary, best estimated after multiple dosing): ~40 h
Cmax and AUC versus dose ([2]; 7.2 and 9.6 mg doses): less than proportional increase
Cmax and AUC versus dose ([2]; Groups I and II, doses from 0.3-3.6 mg): dose-related increase
Cmax ([2]; plasma, after 2.4 mg of delta-9-THC administered by MDI (FIGS. 6 and 7)): 0.77 ng/mL
